Assay results: BindingDB's records for doi:10.1016/j.bmcl.2005.11.011 (University of Pennsylvania, 2006)

Each molecule was assayed against T1, Dimer of Gag-Pol polyprotein [489-587] (Human immunodeficiency virus 1, UniProt P12497) (assay: Protease Inhibition Assay). Details: pH 5.5; 30 °C.
T1 construct: 489-587

| SMILES | IC50 |
| --- | --- |
| O=C(N[C@@H](Cc1ccccc1)[C@@H](O)C[C@]1(Cc2ccccc2)N=CC(C2CNC(=O)c3ccccc32)C1=O)O[C@H]1CCOC1 (stereo partly drawn) [(3S)-oxolan-3-yl N-[(2S,3S)-4-[(2S)-2-benzyl-3-oxo-4-(1-oxo-1,2,3,4-tetrahydroisoquinolin-4-yl)-2,3-dihydro-1H-pyrrol-2-yl]-3-hydroxy-1-phenylbutan-2-yl]carbamate] | 5.7 nM |
| NC(=O)O[C@@H]1Cc2ccccc2C1C1C=N[C@@](Cc2ccccc2)(C[C@H](O)[C@H](Cc2ccccc2)NC(=O)O[C@H]2CCOC2)C1=O (stereo partly drawn) [(3S)-oxolan-3-yl N-[(2S,3S)-4-[(2S)-2-benzyl-4-[(2R)-2-(carbamoyloxy)-2,3-dihydro-1H-inden-1-yl]-3-oxo-2,3-dihydro-1H-pyrrol-2-yl]-3-hydroxy-1-phenylbutan-2-yl]carbamate] | 2 nM |
| O=C(N[C@@H](Cc1ccccc1)[C@@H](O)C[C@]1(Cc2ccccc2)N=CC(C2c3ccccc3C[C@H]2O)C1=O)O[C@H]1CCOC1 (stereo partly drawn) [(3S)-oxolan-3-yl N-[(2S,3S)-4-[(2S)-2-benzyl-4-[(2R)-2-hydroxy-2,3-dihydro-1H-inden-1-yl]-3-oxo-2,3-dihydro-1H-pyrrol-2-yl]-3-hydroxy-1-phenylbutan-2-yl]carbamate] | 2 nM |
| O=C(N[C@@H](Cc1ccccc1)[C@@H](O)C[C@]1(Cc2ccccc2)N=CC(C2c3ccccc3[C@H]3NC(=O)O[C@@H]23)C1=O)O[C@H]1CCOC1 (stereo partly drawn) [(3S)-oxolan-3-yl N-[(2S,3S)-4-[(2S)-4-[(3aR,8aS)-2-oxo-2H,3H,3aH,8H,8aH-indeno[1,2-d][1,3]oxazol-8-yl]-2-benzyl-3-oxo-2,3-dihydro-1H-pyrrol-2-yl]-3-hydroxy-1-phenylbutan-2-yl]carbamate] | 0.44 nM |
| CC(C)(C)CC(=O)N[C@@H](Cc1ccccc1)[C@@H](O)C[C@]1(Cc2ccccc2)N=CC(C2C[C@H](CC(N)=O)c3ccccc32)C1=O (stereo partly drawn) [N-[(2S,3S)-4-[(2S)-2-benzyl-4-[(3R)-3-(carbamoylmethyl)-2,3-dihydro-1H-inden-1-yl]-3-oxo-2,3-dihydro-1H-pyrrol-2-yl]-3-hydroxy-1-phenylbutan-2-yl]-3,3-dimethylbutanamide] | > 250 nM |
| CC(C)(C)CC(=O)N[C@@H](Cc1ccccc1)[C@@H](O)C[C@]1(Cc2ccccc2)N=CC(C2c3ccccc3[C@H]3NC(=O)O[C@@H]23)C1=O (stereo partly drawn) [N-[(2S,3S)-4-[(2S)-4-[(3aR,8aS)-2-oxo-2H,3H,3aH,8H,8aH-indeno[1,2-d][1,3]oxazol-8-yl]-2-benzyl-3-oxo-2,3-dihydro-1H-pyrrol-2-yl]-3-hydroxy-1-phenylbutan-2-yl]-3,3-dimethylbutanamide] | 96 nM |
| CC(C)(C)OC(=O)N[C@@H](Cc1ccccc1)[C@@H](O)C[C@]1(Cc2ccccc2)N=CC(C2C[C@H](CC(N)=O)c3ccccc32)C1=O (stereo partly drawn) [tert-butyl N-[(2S,3S)-4-[(2S)-2-benzyl-4-[(3R)-3-(carbamoylmethyl)-2,3-dihydro-1H-inden-1-yl]-3-oxo-2,3-dihydro-1H-pyrrol-2-yl]-3-hydroxy-1-phenylbutan-2-yl]carbamate] | 20.5 nM |
| CC(C)(C)OC(=O)N[C@@H](Cc1ccccc1)[C@@H](O)C[C@]1(Cc2ccccc2)N=CC(C2c3ccccc3[C@H]3NC(=O)O[C@@H]23)C1=O (stereo partly drawn) [tert-butyl N-[(2S,3S)-4-[(2S)-4-[(3aR,8aS)-2-oxo-2H,3H,3aH,8H,8aH-indeno[1,2-d][1,3]oxazol-8-yl]-2-benzyl-3-oxo-2,3-dihydro-1H-pyrrol-2-yl]-3-hydroxy-1-phenylbutan-2-yl]carbamate] | 2.5 nM |
